Data reported in doi:10.1101/2023.06.20.545697v1 (biorxiv, 2023).
In brackets after ≈: the same amount, converted by molar mass.

Experiments:
[1] = test system: Mycobacterium tuberculosis S7; test: microbe, parasite or virus in culture; settings: S7, 120 h, read-out: MIC99 (S7) µM
[2] = test system: Mycobacterium tuberculosis S6; test: microbe, parasite or virus in culture; settings: S6, 120 h, read-out: MIC99 (S6) µM

Structure (SMILES)	MIC99 [1]	MIC99 [2]
CC(C)C(N)c1ncnn1C (stereo not shown) [SF2]	125 µM (≈ 19.3 µg/mL)	125 µM (≈ 19.3 µg/mL)
NCCSc1ncn[nH]1 [SF3]	250 µM (≈ 36.1 µg/mL)	
CC(N)c1ncnn1C (stereo not shown) [SF1]	250 µM (≈ 31.5 µg/mL)	
